Results as given in publication PMC8962335, “In Vivo Evaluation of ECP Peptide Analogues for the Treatment of Acinetobacter baumannii Infection” (Biomedicines, 2022).
≈ marks a conversion by molar mass, not a printed value. Where “and” joins values, the source holds several entries; their conditions need not be identical. Equal values may be shown once. Where a SMILES comes first, the peptide text is derived from it. Where no end group is shown, it is not given here.

Columns and labels:
[1] = tested on: P. aeruginosa; type: cell-based, Pseudomonas aeruginosa; settings: 24 h
Text: (§1) A. baumannii strain (CECT 452, Valencia, Spain, ATCC 15308, Manassas, VA, USA) and Pseudomonas aeruginosa (P. aeruginosa) strain (CECT 4122, Valencia, Spain, ATCC 15692, Manassas, VA, USA) were from the Colección Española de Cultivos Tipo (CECT, Valencia, Spain). The Escherichia coli (E. coli) BL21 (DE3) strain was from Novagen (Darmstadt, Germany). MRC-5 cells were from the American Type Culture Collection (ATCC, Manassas, VA, USA) and HEK293T cell line was kindly provided by Dr. Raquel Pequerul (UAB, Barcelona, Spain).
(§2) The MIC is defined as the lowest concentration of one reagent to prevent visible growth of bacteria. The MIC determination was followed by the protocol described previously. Briefly, bacteria in exponential growth were used to prepare a suspension in MHB with the approximate number of 5 × 10^5 CFU/mL. Next, an aliquot of 90 μL of bacteria suspension was added into each well of the 96-well polypropylene plate. Immediately, 10 μL of peptide diluted by 0.01% acetic acid was added to the corresponding well to have a final concentration ranging from 20 to 0.16 μM. The plate was incubated for 24 h at 37 °C, 100 rpm. The presence or absence of bacterial growth was visually inspected and confirmed by reading OD600 with Tecan Microplate Reader Spark®. Each test was performed in triplicate.

[2] = tested on: E. coli; type: cell-based, Escherichia coli; settings: 24 h
Text: as §1, §2

[3] = Tolerance study of peptides in mouse (Up and Down, main study, extra groups); type: in vivo, Balb/c mice; settings: for clinical score: 30 mg/kg i.p., within 30 min; for clinical score / MTD: Up and Down assay; for MTD: in vivo, ip, one single dose, i.p., 1 mouse per peptide, read-out: maximum tolerated dose; for clinical signs after a single dose (main study): single i.p. dose: 20 mg/kg ECPep-D, 25 mg/kg ECPep-2D-Orn, all mice
Experimental: Initially, the “Up and Down” protocol was followed to determine the maximum lethal dose with some modifications. Briefly, one mouse was taken per peptide and increasing doses of the peptide were injected through the intraperitoneal (i.p.) route every 48 h, and the concentration at which the mouse had severe clinical symptoms or died was determined (Figure 1a).
Figure 1 Toxicity study plans. (a) “Up and Down” protocol: 1 mouse was injected, starting at a very low peptide dose and observed at 48 h intervals. […] (b) Main study: mice were divided into groups randomly; 1 as well as 2 peptide doses below the lethal dose from the “Up and Down” assay was given two times per day for 3 days (the protocol was readjusted in case of emergency owing to ethical principles, as detailed in the results section and Table S1). An extra group is for the vehicle. (c) Last study: Peptide was tested in smaller groups at lower doses depending on the results obtained from the main study.
Once the lethal concentration had been determined, we continued with the “main study” (Figure 1b). Two groups of 6 female mice were used at two different concentrations of both peptides, one and two concentrations below the maximum considered either by lethality or by clinical signs. The toxicity was further verified by mimicking the doses and frequency foreseen in the previous study, i.e., two doses per day for 3 days as the initial plan.
There was also an extra group to confirm the non-toxicity of the vehicle. For extra caution, some additional doses were applied to confirm the safety dose in case of repeated injections (Figure 1c).
Body weight (BW, g) of mice was measured before every injection and % BW gain was calculated. % BW gain = (new BW − initial BW)/initial BW × 100%(1)
In the tolerance study, for the “Up and Down” assay, the BW was recorded twice on the administration day and, for the “main study”, it was measured every day at the first 3 days and then at some selected days until the 16th day, when the monitoring was finished. In both efficacy assays, BW was recorded once a day but on the first day (Day 0), a second measure was conducted at 8 h.
The clinical symptoms were assessed through a scoring system, which contains 9 items, including changes of body weight, behavior, breathing, skin, hair, eyes and gastrointestinal status (see full list at Table S2). The score for each item increases from 0 to 3 according to the severe levels, up to a total of 27. During the study, when an animal obtained a score of 3 in any of the parameters assessed with a maximum score of 3, euthanasia was carried out to apply the endpoint criteria. Euthanasia would also be practiced if the sum of several parameters that are less than 3 separately was ≥ 7.
In the tolerance study, the clinical score was recorded at about 10 min, 30 min, 1 h, 2 h, 4 h, 7 h, 24 h and 48 h after injecting the peptides for the “Up and Down” assay and in the main study, the clinical score were only monitored when the BW was measured. During the efficacy assay, the clinical score was recorded every 2–3 h on Day 0 and then twice every day.

[4] = in vitro; settings: human, MRC-5 cells; for CC50 at 24 h: LD50 (MRC-5) 24 h; for CC50 at 48 h: LD50 (MRC-5) 48 h
Experimental: (§3) Cytotoxicity was measured for the MRC-5 and HEK293T cell lines by MTT assay. Cells were grown in 5% CO2 at 37 °C with MRC-5 cell line maintained in MEMα and HEK293T in DMEM/F-12 media, both of which were supplemented with 10% FBS. The cells were passaged in 25 cm^2 or 75 cm^2 flasks to prepare 96-well plates with 3 × 10^4 cells/well, which were incubated overnight. Next, serial dilutions of ECPep-D and ECPep-2D-Orn were added to have a final concentration ranging from 100 to 0.78 μM (375 μg/mL to 3 μg/mL) and colistin was added at final concentrations ranging from 300 to 2.34 μM (380 μg/mL to 3 μg/mL) in corresponding wells. After incubation to the specified time, the medium of the plate was replaced by fresh medium containing 0.5 mg/mL MTT solution and the mixture was incubated for 2.5 h in 5% CO2 at 37 °C. The medium was then removed, and formazan was dissolved by adding DMSO. The optical density (OD) was recorded by using a Victor^3 plate reader (PerkinElmer, Waltham, MA, USA) set at 540 nm and 620 nm as a reference. Each test was performed in triplicate.

[5] = tested on: A. baumannii; type: cell-based, Acinetobacter baumannii; settings: 24 h
Text: as §1, §2

[6] = human serum in vitro; cited from earlier work
[7] = tested on: HEK293T cells; settings: 48 h
Experimental: as §3

[8] = tested on: MRC-5 cells; experiment: Cytotoxicity assay (MTT); settings: all the assayed time range (up to 48 h), highest concentration 100 μM
Experimental: as §3

Compound | MIC P. aeruginosa [1] | MIC E. coli [2] | clinical score [3] | MTD [3] | clinical signs after a single dose (main study) [3] | CC50 at 24 h [4] | CC50 at 48 h [4] | MIC A. baumannii [5] | CC50 at 4 h ([4]; LD50 (MRC-5) 4 h) | half-life time in human serum [6] | IC50 [7] | toxicity for MRC-5 at the highest tested concentration [8]
CC[C@@H](C)[C@@H](NC(=O)[C@@H](C)NC(=O)[C@@H](CCCNC(=N)N)NC(=O)[C@@H](CCSC)NC(=O)[C@@H](C)NC(=O)[C@H](NC(=O)[C@H](NC(=O)[C@@H](CCCNC(=N)N)NC(=O)[C@H]1CCCN1C(=O)[C@@H](CO)NC(=O)[C@H](NC(=O)[C@@H](Cc1c[nH]cn1)NC(=O)[C@@H](CCC(N)=O)NC(=O)[C@H](NC(=O)[C@@H](C)NC(=O)[C@@H](Cc1ccccc1)NC(=O)[C@@H](Cc1c[nH]c2ccccc12)NC(=O)[C@@H](CCC(N)=O)NC(=O)[C@@H](C)NC(=O)[C@@H](CCCNC(=N)N)NC(=O)[C@H](NC(=O)[C@@H](Cc1ccccc1)NC(=O)[C@H]1CCCN1C(=O)[C@H](N)CCCNC(=N)N)[C@H](C)O)[C@H](C)CC)[C@H](C)CC)[C@H](C)O)[C@H](C)CC)C(=O)N[C@H](CC(N)=O)C(=O)N[C@H](CC(N)=O)C(=O)N[C@H](Cc1ccc(O)cc1)C(=O)N[C@H](CCCNC(=N)N)C(=O)N[C@H](Cc1c[nH]c2ccccc12)C(=O)N[C@H](CCCNC(=N)N)C(N)=O [ECPep-D] (HELM PEPTIDE1{[dR].[dP].[dF].[dT].[dR].[dA].[dQ].[dW].[dF].[dA].[dI].[dQ].[dH].[dI].[dS].[dP].[dR].[dT].[dI].[dA].[dM].[dR].[dA].[dI].[dN].[dN].[dY].[dR].[dW].[dR].[am]}$$$$V2.0) | 10 µM (≈ 37.6 µg/mL) | 10 µM (≈ 37.6 µg/mL) | over 6 | 20 mg/kg | did not cause any obvious clinical signs | 164 ± 33.2 µg/mL (≈ 43.5 µM) | 88.4 ± 17.8 µg/mL (≈ 23.5 µM) | 10 µM (≈ 37.6 µg/mL) | – | – | – | –
RPFTRAQWFAIQHISPRTIAMRAINNYRWR-NH2 [ECPep-L] | 10 µM | 10 µM | – | – | – | – | – | 10 µM | 276 µM and > 1000 µg/mL | 12 min | – | –
CC[C@H](C)[C@H](NC(=O)[C@H](C)NC(=O)[C@H](CCCN)NC(=O)[C@H](CCSC)NC(=O)[C@H](C)NC(=O)[C@@H](NC(=O)[C@@H](NC(=O)[C@H](CCCN)NC(=O)[C@@H]1CCCN1C(=O)[C@H](CO)NC(=O)[C@@H](NC(=O)[C@H](Cc1c[nH]cn1)NC(=O)[C@H](CCC(N)=O)NC(=O)[C@@H](NC(=O)[C@H](C)NC(=O)[C@H](Cc1ccccc1)NC(=O)[C@H](Cc1c[nH]c2ccccc12)NC(=O)[C@H](CCC(N)=O)NC(=O)[C@H](C)NC(=O)[C@H](CCCN)NC(=O)[C@@H](NC(=O)[C@H](Cc1ccccc1)NC(=O)[C@H]1CCCN1C(=O)[C@@H](N)CCCN)[C@@H](C)O)[C@@H](C)CC)[C@@H](C)CC)[C@@H](C)O)[C@@H](C)CC)C(=O)N[C@@H](CC(N)=O)C(=O)N[C@@H](CC(N)=O)C(=O)N[C@@H](Cc1ccc(O)cc1)C(=O)N[C@@H](CCCN)C(=O)N[C@@H](Cc1c[nH]c2ccccc12)C(=O)N[C@@H](CCCN)C(N)=O [ECPep-2D-Orn] (HELM PEPTIDE1{[Orn].[dP].F.T.[Orn].A.Q.W.F.A.I.Q.H.I.S.P.[Orn].T.I.A.M.[Orn].A.I.N.N.Y.[Orn].W.[Orn].[am]}$$$$V2.0) | >20 µM | >20 µM | over 6 | 25 mg/kg | did not cause any obvious clinical signs | > 100 µM and > 351 µg/mL | > 100 µM and > 351 µg/mL | 5 µM (≈ 17.5 µg/mL) | – | > 480 min | > 100 µM | no toxicity was observed
